From patent publication US20260103474A1, “NOVEL COMPOUNDS FOR THE DIAGNOSIS OF TDP-43 PROTEINOPATHIES” (AC IMMUNE SA, priority 2022, published 2026)
Read-outs that look alike come from different tables or passages of the source.

Columns and labels:
[1] = molecular target: human FTD Type A sarkosyl-insoluble brain extracts (Homo sapiens, UniProt Q13148); test: Kd determination by micro-radiobinding assay on FTD Type A extracts; type: binding; conditions: tritiated compound 1.29 to 300 nM
Method: Human brain extracts were prepared as described in Laferriere et al., 2019, Nature Neurosc. A sample of brain tissue (frontal or temporal cortex) was homogenized at 1:4 (w/v) ratio in the homogenization-solubilization (HS) buffer at 4° C. using tissue homogenizer (Precellys) with CKmix homogenization tubes. The following sequence was used for homogenization: 3 cycles of 30 seconds at 5000 rpm (with 15 seconds pause between each cycle). Homogenized samples were aliquoted and stored at −80° C. in 1.5 mL low protein binding tubes.
Brain homogenates were thawed on ice and resuspended in HS buffer to obtain a final concentration of 2% sarkosyl, 1 unit/μL Benzonase and 1 mM MgCl2. The samples were then incubated at 37° C. under constant shaking at 600 rpm on a thermomixer for 45 minutes (min). The supernatants were collected in a new tube (sarkosyl-soluble fraction, S1). The pellet was resuspended in 1000 μL of myelin floatation buffer and centrifuged at 20,000 g for 60 min at 4° C. The supernatant was carefully removed to remove all the floating lipids. This step was repeated if all the lipids could not be removed in a single step. The pellet was subsequently washed with Phosphate-Buffered Saline (PBS) and centrifuged for 30 min at 20,000 g at 4° C. The final pellet was resuspended in 200 μL PBS and stored at −80° C. (sarkosyl-insoluble fraction). The samples were analyzed by immunoblotting in denaturing conditions.
Human FTD sarkosyl-insoluble brain extracts were spotted onto microarray slides. The slides were incubated with [^3H]-Compounds 1, 7, 8, 9, 15, 16 and 17 in a range of concentrations, varying from 1.29 to 300 nM. After incubation, slides were washed and scanned by a real-time autoradiography system (BeaQuant, ai4R). Quantification of the signal was performed by using the Beamage image analysis software (ai4R). Non-specific signal was determined with an excess of non-radiolabeled compound 1, 7, 8, 9, 15, 16 and 17 (1 μM), respectively, and specific binding was calculated by subtracting the non-specific signal from the total signal.
The Kd (Dissociation constant) and R^2 (parameter ranging between 0.0 and 1.0 that quantifies the goodness of fit, and the best curve fit obtained with value of 1.0) were obtained by fitting the specific binding data with non-linear regression analysis, using a one-site specific binding model in GraphPad Prism8.

[2] = molecular target: T1, Abeta (Homo sapiens, UniProt P05067); test: Radiobinding competition assay using Abeta reference compound on AD insoluble fraction of brain homogenates; type: binding; conditions: against [3H]Abeta reference compound
T1 construct: an AD donor with confirmed burden of Tau and Abeta aggregates; from tissue; host or cells: frontal cortex of a human AD donor, Triton/sucrose-insoluble fraction
T1 sequence (P05067 672-713 limits assumed): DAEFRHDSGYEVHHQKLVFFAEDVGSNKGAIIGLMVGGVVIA
Method: Approximately 4 g of frozen tissue block from frontal cortex brain region was used from an AD donor with confirmed burden of Tau and Abeta aggregates. The tissue was homogenized in three volumes (1:3 w/v) of high salt buffer (50 mM Tris-HCl pH 7.5, 750 mM NaCl, 5 mM EDTA) supplemented with protease inhibitors (Complete; Roche 11697498001) at 4° C. with a glass Dounce homogenizer. The homogenate was transferred into polycarbonate centrifuge bottles (16×76 mm; Beckman 355603) and centrifuged at 100,000×g (38,000 RPM) in an ultracentrifuge (Beckman, XL100K) for 60 minutes at 4° C. using a pre-cooled 70.1 rotor (Beckman, 342184). Pellets were resuspended in high salt buffer supplemented with 1% Triton X-100 and homogenized at 4° C. with a syringe. The homogenates were centrifuged again at 100,000×g (38,000 RPM, 70.1 rotor) for 60 minutes at 4° C. Pellets were resuspended in high salt buffer supplemented with 1% Triton X-100 and 1 M sucrose and homogenized at 4° C. with a syringe. The homogenates were centrifuged at 100,000×g (38,000 RPM, 70.1 rotor) for 60 minutes at 4° C. The resulting pellets containing insoluble fraction were resuspended in PBS (1:2 w/v relative to starting tissue weight), aliquoted and stored at −80° C. until use.
The reaction was performed in assay buffer (50 mM Tris pH 7.5 in 0.9% NaCl, 0.1% BSA) and incubated for two hours at room temperature (RT). Samples in duplicate were then filtered under vacuum in GF/C filter plates (PerkinElmer) to trap the aggregates with the bound radioligand and washed with 100 μL ice-cold 50 mM Tris pH 7.5. The GF/C filters were then dried and scintillation liquid (UltimateGold, PerkinElmer, 6013151) was added in each well. The filters were analyzed on a Microbeta2 scintillation counter (PerkinElmer). Values for the maximal signal were obtained in the absence of non-radiolabeled compound, while 100% displacement was obtained using 1 μM of non-radiolabeled reference compound. Ki values were calculated by nonlinear regression, using a one site—fit Ki model in Prism V7 (GraphPad).

[3] = cells printed in μM, read-out: Ki on AD brain homogenates

human FTD Type A sarkosyl-insoluble brain extracts, sequence (Q13148 263-414 limits assumed): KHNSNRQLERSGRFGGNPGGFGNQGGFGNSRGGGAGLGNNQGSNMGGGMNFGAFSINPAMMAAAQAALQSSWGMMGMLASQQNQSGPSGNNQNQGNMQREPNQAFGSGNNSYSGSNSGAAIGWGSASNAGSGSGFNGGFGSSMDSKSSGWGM

Row | SMILES | Kd [1] | Ki [2, 3] | Ki ([2]; read-out: Ki (nM) on AD brain homogenates)
1 | [3H]c1cncc(N2CCc3nc(-c4cc([3H])c(N5CC[C@@H](F)C5)nc4F)sc3C2=O)c1 [[^3H]-Compound 1, tritiated 2-[2-fluoro-6-[(3R)-3-fluoropyrrolidin-1-yl]-3-pyridyl]-5-(3-pyridyl)-6,7-dihydrothiazolo[5,4-c]pyridin-4-one] | 69 ± 21 nM |  | 
2 | O=C1c2sc(-c3ccc(N4CC[C@@H](F)C4)nc3F)nc2CCN1c1cccnc1 [Compound 1, 2-[2-fluoro-6-[(3R)-3-fluoropyrrolidin-1-yl]-3-pyridyl]-5-(3-pyridyl)-6,7-dihydrothiazolo[5,4-c]pyridin-4-one] |  | > 1 µM | > 1 µM
3 | [3H]C([3H])(O)C1CCN(c2ccc(-c3nc4c(s3)C(=O)N(c3cccnc3)CC4)c(F)n2)CC1 [[^3H]-Compound 17, 2-(2-fluoro-6-(4-(hydroxymethyl-t2)piperidin-1-yl)pyridin-3-yl)-5-(pyridin-3-yl)-6,7-dihydrothiazolo[5,4-c]pyridin-4(5H)-one] | 25 ± 6 nM |  | 
4 | O=C1c2sc(-c3ccc(N4CCC(CO)CC4)nc3F)nc2CCN1c1cccnc1 [Compound 17, 2-(2-fluoro-6-(4-(hydroxymethyl)piperidin-1-yl)pyridin-3-yl)-5-(pyridin-3-yl)-6,7-dihydrothiazolo[5,4-c]pyridin-4(5H)-one] |  | > 1 µM | 
